Measured values reported in publication PMC9490041, “Determinants of affinity, specificity, and phase separation in a supramodule from Post-synaptic density protein 95” (iScience, 2022).
Where two headings read alike, the source gives them in different places. Ends that are not written are not given here.

Key:
Assay in all cases: FP displacement (competition) of FITC-15 AA CRIPT by library peptide, IC50 and Ki
PSG G335A (PSD-95) = conditions: for IC50: read-out: IC50 (µM), PSG G335A; for Ki: read-out: Ki (µM), PSG G335A
PSG G322A (PSD-95) = conditions: for IC50: read-out: IC50 (µM), PSG G322A; for Ki: read-out: Ki (µM), PSG G322A
PSG G322A G335A (PSD-95) = conditions: for IC50: read-out: IC50 (µM), PSG G322A G335A
[1] = FP displacement of FITC-15 AA CRIPT probe by acetylated PSD library peptide
[2] = FP displacement of FITC-15 AA CRIPT probe by acetylated PSD library peptide (P-13 to P0 plus extra N-terminal Y)
[3] = FP displacement of FITC-15 AA CRIPT probe by PSD library peptide, protein PSG G322A
[4] = read-out: Ki (µM), PSG G322A G335A, FP displacement of FITC-15 AA CRIPT probe by acetylated PSD library peptide
[5] = FP displacement of FITC-15 AA CRIPT probe by PSD library peptide, protein PSG G335A
[6] = FP displacement of FITC-15 AA CRIPT probe by PSD library peptide, protein PSG G322A G335A
[7] = read-out: Ki (µM), PSG G322A G335A, FP displacement of FITC-15 AA CRIPT probe by PSD library peptide, protein PSG G322A G335A

Molecule	IC50 (PSG G335A (PSD-95); [1]) [µM]	Ki (PSG G335A (PSD-95); [1]) [µM]	IC50 (PSG G322A (PSD-95); [1]) [µM]	Ki (PSG G322A (PSD-95); [1]) [µM]	IC50 (PSG G322A G335A (PSD-95); [2]) [µM]	IC50 (PSG G322A (PSD-95); [3]) [µM]	Ki (PSG G322A G335A (PSD-95); [4]) [µM]	IC50 (PSG G322A G335A (PSD-95); [6]) [µM]	Ki (PSG G322A G335A (PSD-95); [7]) [µM]	other results
CC[C@H](C)[C@H](NC(=O)[C@H](CC(=O)O)NC(=O)[C@H](CCC(N)=O)NC(=O)CNC(=O)[C@@H](NC(=O)[C@H](CC(C)C)NC(=O)[C@@H]1CCCN1C(=O)[C@H](Cc1ccc(O)cc1)NC(C)=O)C(C)C)C(=O)N[C@H](C(=O)N[C@@H](CC(=O)O)C(=O)N[C@@H](CC(C)C)C(=O)N[C@@H](CCC(N)=O)C(=O)N[C@H](C(=O)N[C@@H](CCC(=O)O)C(=O)N[C@H](C(=O)O)C(C)C)[C@@H](C)O)[C@@H](C)CC [ADGRB1]	245	87	258	112	112					Ki (PSG G322A G335A (PSD-95); FP displacement of 5 nM FITC-15 AA CRIPT by non-labeled acetylated peptide, room temperature, Ki from IC50, PSG G322A G335A): 39 µM
CC[C@H](C)[C@H](NC(=O)[C@H](CCCNC(=N)N)NC(=O)[C@H](CCCNC(=N)N)NC(=O)[C@H](CCC(N)=O)NC(=O)[C@H](CC(N)=O)NC(=O)[C@H](CC(C)C)NC(=O)CNC(=O)[C@H](CO)NC(=O)[C@H](Cc1ccc(O)cc1)NC(=O)[C@H](CC(C)C)NC(=O)[C@H](CC(=O)O)NC(=O)[C@H](CCCNC(=N)N)NC(=O)[C@H](CCC(N)=O)NC(=O)CNC(=O)[C@H](Cc1ccc(O)cc1)NC(C)=O)C(=O)O [CD3E]						757				Ki (PSG G322A (PSD-95); [3]): 328 µM
CSCC[C@H](NC(=O)[C@H](CC(N)=O)NC(=O)[C@H](CCCCN)NC(=O)[C@H](CC(C)C)NC(=O)[C@@H](NC(=O)[C@H](CC(=O)O)NC(=O)[C@H](Cc1ccc(O)cc1)NC(C)=O)C(C)C)C(=O)N[C@H](C(=O)N[C@@H](CC(=O)O)C(=O)N[C@@H](CCCCN)C(=O)N[C@@H](C)C(=O)N1CCC[C@H]1C(=O)N1CCC[C@H]1C(=O)NCC(=O)N[C@H](C(=O)O)C(C)C)[C@@H](C)O [CK2N1]			824	357	940		325			
CC(=O)N[C@@H](Cc1ccc(O)cc1)C(=O)N[C@@H](Cc1ccc(O)cc1)C(=O)N[C@@H](CCC(=O)O)C(=O)N[C@H](C(=O)N[C@@H](CO)C(=O)N[C@@H](Cc1c[nH]cn1)C(=O)N[C@@H](Cc1ccc(O)cc1)C(=O)N1CCC[C@H]1C(=O)N[C@@H](C)C(=O)N[C@@H](CO)C(=O)N1CCC[C@H]1C(=O)N[C@@H](CC(=O)O)C(=O)N[C@@H](CO)C(=O)N[C@@H](Cc1c[nH]c2ccccc12)C(=O)N[C@H](C(=O)O)C(C)C)[C@@H](C)O [CTND2]						694		465	161	IC50 (PSG G335A (PSD-95); [5]): 1020 µM; Ki (PSG G335A (PSD-95); [5]): 364 µM; Ki (PSG G322A (PSD-95); [3]): 301 µM
CC(=O)N[C@@H](Cc1ccc(O)cc1)C(=O)N[C@@H](Cc1ccccc1)C(=O)N[C@H](C(=O)N[C@@H](Cc1ccc(O)cc1)C(=O)N[C@@H](Cc1c[nH]cn1)C(=O)N[C@H](C(=O)N[C@@H](CO)C(=O)N[C@@H](CC(=O)O)C(=O)NCC(=O)N[C@@H](CC(=O)O)C(=O)N[C@@H](C)C(=O)N[C@@H](CC(C)C)C(=O)N[C@@H](CC(C)C)C(=O)N[C@@H](CC(C)C)C(=O)N[C@@H](CC(C)C)C(=O)O)[C@@H](C)O)[C@@H](C)O [CX3C1]								740	256	
CC[C@H](C)[C@H](NC(=O)[C@H](CO)NC(=O)[C@@H](NC(=O)[C@@H](NC(=O)[C@@H]1CCCN1C(=O)[C@H](CC(C)C)NC(=O)[C@H](C)NC(=O)[C@@H]1CCCN1C(=O)[C@H](Cc1ccc(O)cc1)NC(C)=O)[C@@H](C)O)C(C)C)C(=O)N[C@@H](CO)C(=O)N[C@@H](CO)C(=O)N[C@@H](CO)C(=O)N[C@@H](C)C(=O)N[C@@H](CCC(=O)O)C(=O)N[C@H](C(=O)O)C(C)C [DOC10]	2010	718	1460	634	2020		698			
Ac-YEKAASREEPIEWEF [CUX1]						1560		1280		IC50 (PSG G335A (PSD-95); [5]): 1360 µM; Ki (PSG G335A (PSD-95); [5]): 485 µM; Ki (PSG G322A (PSD-95); [3]): 679 µM
Ac-YEPPEPKKSRRSVLL [CDC42]						952		1100	381	IC50 (PSG G335A (PSD-95); [5]): 1180 µM; Ki (PSG G335A (PSD-95); [5]): 421 µM
Ac-YERAANREEALEWEF [CUX2]						701			351	Ki (PSG G322A (PSD-95); [3]): 304 µM
Ac-YQEQNKVLWIPASPL [DLG5]	1020	365	1510	654	2830		979			
Ac-YQSGPFIWIPSKEKL [DLG2]	2120	758	1420	615	734		254			

The next lines start with results.

IC50 (PSG G335A (PSD-95); [1]) [µM]	Ki (PSG G335A (PSD-95); [1]) [µM]	IC50 (PSG G322A (PSD-95); [1]) [µM]	Ki (PSG G322A (PSD-95); [1]) [µM]	IC50 (PSG G322A G335A (PSD-95); [2]) [µM]	IC50 (PSG G322A (PSD-95); [3]) [µM]	Ki (PSG G322A G335A (PSD-95); [4]) [µM]	IC50 (PSG G322A G335A (PSD-95); [6]) [µM]	Ki (PSG G322A G335A (PSD-95); [7]) [µM]	Molecule	other results
673	240	660	286	570		197			CC(=O)N[C@@H](Cc1ccc(O)cc1)C(=O)N[C@@H](CC(C)C)C(=O)N[C@@H](Cc1c[nH]cn1)C(=O)NCC(=O)N[C@@H](Cc1c[nH]cn1)C(=O)N[C@@H](CCCNC(=N)N)C(=O)N[C@@H](Cc1ccc(O)cc1)C(=O)N[C@@H](CO)C(=O)N[C@@H](CO)C(=O)NCC(=O)N[C@@H](CO)C(=O)N[C@@H](CCCNC(=N)N)C(=O)N[C@@H](CO)C(=O)N[C@@H](CC(C)C)C(=O)N[C@H](C(=O)O)C(C)C [IQEC3]	
							1120	388	CC[C@H](C)[C@H](NC(=O)[C@H](CCC(=O)O)NC(=O)[C@@H](NC(=O)[C@H](C)NC(=O)[C@@H](NC(=O)[C@@H](NC(=O)[C@H](CC(=O)O)NC(=O)[C@H](CCC(=O)O)NC(=O)[C@H](Cc1ccc(O)cc1)NC(=O)[C@@H]1CCCN1C(=O)[C@@H](NC(=O)[C@H](CC(=O)O)NC(=O)[C@H](C)NC(=O)CNC(=O)[C@H](Cc1ccc(O)cc1)NC(C)=O)[C@@H](C)CC)[C@@H](C)CC)[C@@H](C)CC)[C@@H](C)O)C(=O)O [LZTS1]	IC50 (PSG G335A (PSD-95); [5]): 648 µM; Ki (PSG G335A (PSD-95); [5]): 231 µM
					1210		944	327	CC(=O)N[C@@H](Cc1ccc(O)cc1)C(=O)N[C@@H](CC(=O)O)C(=O)N[C@@H](CCCCN)C(=O)N[C@@H](CCCNC(=N)N)C(=O)N[C@@H](CC(=O)O)C(=O)N[C@@H](CO)C(=O)N[C@@H](CCC(=O)O)C(=O)N[C@@H](CCC(=O)O)C(=O)N[C@@H](CCC(=O)O)C(=O)N[C@@H](CO)C(=O)N[C@@H](CCC(=O)O)C(=O)N[C@@H](CO)C(=O)N[C@H](C(=O)N[C@@H](C)C(=O)N[C@@H](CC(C)C)C(=O)O)[C@@H](C)O [RHG44]	Ki (PSG G322A (PSD-95); [3]): 526 µM
1130	404	756	328	994		344			CC[C@H](C)[C@H](NC(=O)[C@H](Cc1ccccc1)NC(=O)[C@H](Cc1ccc(O)cc1)NC(=O)[C@@H]1CCCN1C(=O)[C@H](CCC(N)=O)NC(=O)[C@H](Cc1ccc(O)cc1)NC(C)=O)C(=O)N[C@H](C(=O)N[C@@H](CC(N)=O)C(=O)N[C@@H](CO)C(=O)N[C@@H](CCCCN)C(=O)N[C@H](C(=O)N[C@@H](CCC(=O)O)C(=O)N[C@H](C(=O)N[C@H](C(=O)N[C@H](C(=O)O)C(C)C)[C@@H](C)O)C(C)C)[C@@H](C)O)[C@@H](C)O [SHSA9]	
		867	376	880		304			CC(=O)N[C@@H](Cc1ccc(O)cc1)C(=O)N[C@H](C(=O)N[C@@H](CCC(=O)O)C(=O)N[C@@H](CO)C(=O)N[C@@H](CC(C)C)C(=O)N[C@@H](CO)C(=O)N[C@@H](CO)C(=O)N[C@@H](CCC(=O)O)C(=O)N[C@@H](CO)C(=O)N[C@H](C(=O)N[C@@H](C)C(=O)N[C@H](C(=O)N[C@@H](CO)C(=O)N1CCC[C@H]1C(=O)N[C@H](C(=O)O)C(C)C)[C@@H](C)O)[C@@H](C)O)C(C)C [TNR16]	
721	257	1730	752	1810		625			CC(=O)N[C@@H](Cc1ccc(O)cc1)C(=O)N[C@@H](C)C(=O)N1CCC[C@H]1C(=O)N[C@@H](C)C(=O)N[C@H](C(=O)N[C@@H](CO)C(=O)N1CCC[C@H]1C(=O)N1CCC[C@H]1C(=O)N[C@@H](CCC(=O)O)C(=O)N[C@@H](CCCNC(=N)N)C(=O)N[C@@H](C)C(=O)N[C@@H](CC(C)C)C(=O)N[C@@H](CO)C(=O)N[C@@H](CCCCN)C(=O)N[C@@H](CC(C)C)C(=O)O)[C@@H](C)O [TUTLB]	
1510	538	651	282	881		305			Ac-YDVVAVYPNAKVELV [PDLI4]	
				1070		370			Ac-YQETLFVGNDQVSEI [TM108]	
					914				Ac-YVMQDESFPASKIEL [MAP1B]	Ki (PSG G322A (PSD-95); [3]): 396 µM
							1700	590	Ac-YYETGSLSFAGDERI [SEZ6]	
